Experimental findings from patent US20110294722A1, “ANTIMICROBIAL PEPTIDES” (priority 2008, published 2011) are described below.

Common to all, as to format: cell-based
Experiment [1] deals with Botrytis cinerea. Description: In-vitro inhibition assay (MIC), Example 2. The following applies: visual screening. How it is done:
(§1) In-vitro inhibition assays were performed in sterile flat-bottom 96-well plates (Greiner bio-one, Frickenhausen). Antimicrobial peptides were dissolved in 0.01% acetic acid containing 0.2% BSA (500 μg/ml), filter sterilized and stored at −20° C. For inhibition assays dilutions of peptides ranging from 5 to 200 μg/ml were prepared and 10 μl (antibacterial assay) or 20 μl (antifungal assay) of each concentration was loaded per well.
(§2) Spores of fungi were collected by water washes of sporulating cultures grown on 2% malt extract agar and spore concentration was determined by microscopy. The concentration of the spores was adjusted to 1.5-2×10^3 spores/ml in 2% malt extract medium and 80 μl of fungal spores were added per well. The final peptide concentrations used in the fungal inhibition assays were […]. After overnight incubation at room temperature the plate were put on a rotary shaker (300 rpm) for further two days to ensure consistantly growth. Antifungal effects of the peptides were determined by a microplate reader (Alternaria, Fusarium) at OD590 nm or by visual screening of the plates (Botrytis, Cladosporium).
(§3) The lowest peptide concentration leading to complete inhibition of bacterial growth or spore germination/mycelial growth (minimal inhibition concentration, MIC) was determined for each organism-peptide combination. For each peptide concentration two identical inhibition assays were performed.

Experiment [2] has as its system Cladosporium herbarum. Description: In-vitro inhibition assay (MIC), Example 2. Particulars: visual screening. How it is done:
as §1, §2, §3

The test system of experiment [3] is Alternaria alternata. Description: In-vitro inhibition assay (MIC), Example 2. The following applies: OD590 nm. How it is done:
as §1, §2, §3

Experiment [4] deals with Clavibacter michiganensis. Description: In-vitro inhibition assay (MIC and LC), Example 3. Particulars: for MIC (>90% inhibition): 1-2 days at 25° C.; for LC (lethal concentration, 100% inhibition): at least 4 days of incubation. How it is done:
(§4) In-vitro inhibition assays were performed in sterile flat-bottom 96-well plates (Greiner bio-one, Frickenhausen). Antimicrobial peptides were dissolved in 0.01% acetic acid containing 0.2% BSA (500 μg/ml), filter sterilized and stored at −20° C. For inhibition assays dilutions of peptides ranging from 5 to 200 μg/ml were prepared and 10 μl (antibacterial assay) or 20 (antifungal assay) of each concentration was loaded per well.
(§5) Bacteria colonies from overnight agar plate cultures were resuspended into 5 ml LB-medium or HPG-medium (OD600 nm=0.08-0.1) and diluted into LB-medium/HPG-medium (1:100). 90 μl of this suspension containing about 10^5-10^6 CFU/ml of tested bacteria were added to each well resulting in final peptide concentrations of 0, 0.5, 1, 2, 5, 10, and 20 μg/ml. […] The lowest concentration, in which there is no observable growth (>90% inhibition) is referred to as minimal inhibitory concentration (MIC). […] For each peptide concentration two identical inhibition assays were performed.

Experiment [5] concerns Xanthomonas vesicatoria. Description: In-vitro inhibition assay (MIC and LC), Example 3. Particulars: for MIC (>90% inhibition): 1-2 days at 25° C.; for LC (lethal concentration, 100% inhibition): at least 4 days of incubation. The procedure: as §4, §5
Experiment [6] has as its system Pectobacterium carotovorum. Particulars: Pectobacterium carotovorum; for MIC (>90% inhibition): 1-2 days at 25° C.; for LC (lethal concentration, 100% inhibition): at least 4 days of incubation. How it is done:
as §4, §5

Experiment [7] relates to Pseudomonas corrugata. The following applies: Pseudomonas corrugata; for MIC (>90% inhibition): 1-2 days at 25° C.; for LC (lethal concentration, 100% inhibition): at least 4 days of incubation. The procedure:
as §4, §5

The subject of experiment [8] is Pseudomonas syringae pv. syringae. Particulars: Pseudomonas syringae pv. syringae; for MIC (>90% inhibition): 1-2 days at 25° C.; for LC (lethal concentration, 100% inhibition): at least 4 days of incubation. The procedure:
as §4, §5

Experiment [9] concerns Pseudomonas syringae pv. tomato. The following applies: for LC (lethal concentration, 100% inhibition): at least 4 days of incubation. How it is done: as §4, §5
Where [10] appears, read: Pseudomonas syringae pv. tomato, 1-2 days at 25° C.
[11] abbreviates: Pseudomonas syringae pv. tomato.

Like-named read-outs stand apart in the source and are kept apart here. No end group written: not given here. Where only a bound is given, the exact number is not on record here.

Turning to KKKAARALKRAL-NH2 [Sp4, KKKAARALKRAL], the entries for the “Minimal inhibition concentration (MIC) for complete inhibition of spore germination/mycelial growth” value in [1], in experiment [2] and in experiment [3] were above 100 µg/mL, 40 µg/mL and above 100 µg/mL, respectively.

For the substance KRKKLLKRLI-NH2 [SP1-16], the “MIC (>90% inhibition)” value was >10/>10 μg/ml in experiment [4]; 10/>10 μg/ml in experiment [5]; >10/>10 μg/ml in [6]; 0.5 µg/mL in [7]; 0.1 µg/mL in [8]; 1.0/1.0 μg/ml in experiment [9] (setting [10]). Besides, the “LC (lethal concentration, 100% inhibition)” value in [4] was >10/>10 μg/ml; in experiment [5], 10/>10 μg/ml; in experiment [6], >10/>10 μg/ml; in [7], 1.0 µg/mL; in experiment [8] it was 2.5 µg/mL; in [9] (setting [11]), 1.0/1.0 μg/ml.

As to RKKRLKVVKRLV-NH2 [SP1-4], the “MIC (>90% inhibition)” value was >10/>10 μg/ml in [4]; >10/>10 μg/ml in [5]; >10/>10 μg/ml in [6]; >10/>10 μg/ml in [7]; 5.0 µg/mL in experiment [8]; 2.5 µg/mL in experiment [9] (setting [10]). The “LC (lethal concentration, 100% inhibition)” value is >10/>10 μg/ml in experiment [4]; >10/>10 μg/ml in [5]; >10/>10 μg/ml in experiment [6]; >10/>10 μg/ml in [7]; above 10 µg/mL in [8]; above 10 µg/mL in [9] (setting [11]).

As for RKKRKKLIKRLI-NH2 [Sp1-19], the “MIC (>90% inhibition)” value was 5.0/5.0 μg/ml in experiment [4]; 5.0 µg/mL in experiment [5]; >10/>10 μg/ml in [6]; 0.5 µg/mL in experiment [7]; below 0.1 µg/mL in experiment [8]; >10/>10 μg/ml in experiment [9] (setting [10]). For the same substance, the “LC (lethal concentration, 100% inhibition)” value in [4] is 5.0/5.0 μg/ml; in experiment [5], above 10 µg/mL; in [6], >10/>10 μg/ml; in experiment [7], 1.0 µg/mL; in [8], 5.0 µg/mL; in experiment [9] (setting [11]), >10/>10 μg/ml.

As for RKKKVKLLKRLV-NH2 [SP1-3], the “MIC (>90% inhibition)” value in experiment [4] is >10/>10 μg/ml; in experiment [5] it was >10/>10 μg/ml; in [6], >10/>10 μg/ml; in [7], 2.5/2.5 μg/ml; in experiment [8], 0.25 µg/mL; in experiment [9] (setting [10]), 5.0 µg/mL. The “LC (lethal concentration, 100% inhibition)” value is >10/>10 μg/ml in [4]; >10/>10 μg/ml in experiment [5]; >10/>10 μg/ml in experiment [6]; 2.5/2.5 μg/ml in experiment [7]; 1.0 µg/mL in experiment [8]; 10 µg/mL in experiment [9] (setting [11]).

For RKKKLKVVKRLV-NH2 [SP1-6], the “MIC (>90% inhibition)” value in [4] was 10/>10 μg/ml; in experiment [5], >10/>10 μg/ml; in experiment [6], >10/>10 μg/ml; in [7], >10/>10 μg/ml; in experiment [8], 5.0 µg/mL; in experiment [9] (setting [10]), 1.0/1.0 μg/ml. Besides, the “LC (lethal concentration, 100% inhibition)” value in experiment [4] is 10/>10 μg/ml; in [5], >10/>10 μg/ml; in [6] it was >10/>10 μg/ml; in experiment [7], >10/>10 μg/ml; in experiment [8], above 10 µg/mL; in [9] (setting [11]), 1.0/1.0 μg/ml.

In the case of RKKRLRVVRRLV-NH2 [SP1-5], the “MIC (>90% inhibition)” value is >10/>10 μg/ml in experiment [4]; >10/>10 μg/ml in experiment [5]; >10/>10 μg/ml in [6]; 5.0 µg/mL in experiment [7]; >10/>10 μg/ml in experiment [8]; 1.0 µg/mL in [9] (setting [10]). Further, the “LC (lethal concentration, 100% inhibition)” value is >10/>10 μg/ml in [4]; >10/>10 μg/ml in experiment [5]; >10/>10 μg/ml in experiment [6]; >10/>10 μg/ml in [8]; 2.5 µg/mL in experiment [9] (setting [11]).

Regarding RKKKKKIIKKLI-NH2 [SP1-21], the “MIC (>90% inhibition)” value in [4] was >10/>10 μg/ml; in [5], >10/>10 μg/ml; in [6], >10/>10 μg/ml; in experiment [7], 2.5 µg/mL; in experiment [8], 0.5 µg/mL; in experiment [9] (setting [10]), 2.5 µg/mL. The “LC (lethal concentration, 100% inhibition)” value in experiment [4] is >10/>10 μg/ml; in experiment [5], >10/>10 μg/ml; in [6] it was >10/>10 μg/ml; in [7] it was 5.0 µg/mL; in experiment [8], 2.5 µg/mL; in experiment [9] (setting [11]), 5.0 µg/mL.

On to RKKKIKIIKRLI-NH2 [SP1-8], for which the “MIC (>90% inhibition)” value is 5.0 µg/mL in [4]; 2.5 µg/mL in [5]; >10/>10 μg/ml in [6]; 2.5/2.5 μg/ml in experiment [7]; 0.25 µg/mL in [8]; 10/10 μg/ml in experiment [9]. Further, the “LC (lethal concentration, 100% inhibition)” value in experiment [4] is above 10 µg/mL; in experiment [5], 5.0 µg/mL; in [6] it was >10/>10 μg/ml; in experiment [7], 2.5/2.5 μg/ml; in [8], 0.5 µg/mL; in experiment [9] (setting [11]), 10/10 μg/ml.

RKKKFKFFKRFF-NH2 [SP1-13]: the “MIC (>90% inhibition)” value in [4] is 0.25 µg/mL; in experiment [5], 0.5 µg/mL; in experiment [6], >10/>10 μg/ml; in experiment [7], below 0.1 µg/mL; in [8], 0.1 µg/mL; in [9], 1.0 µg/mL. For the same substance, the “LC (lethal concentration, 100% inhibition)” value in experiment [4] is 1.0 µg/mL; in [5], 2.5 µg/mL; in experiment [6], >10/>10 μg/ml; in [7], 0.25 µg/mL; in experiment [8], 0.5 µg/mL; in [9] (setting [11]), 5.0 µg/mL.

Turning to RKKKLKIIKRLI-NH2 [SP1-7], the “MIC (>90% inhibition)” value is 2.5/2.5 μg/ml in experiment [4]; 1.0/1.0 μg/ml in [5]; >10/>10 μg/ml in experiment [6]; 0.5 µg/mL in experiment [7]; 0.1 µg/mL in experiment [8]; 10/10 μg/ml in experiment [9]. The “LC (lethal concentration, 100% inhibition)” value is 2.5/2.5 μg/ml in [4]; 1.0/1.0 μg/ml in experiment [5]; >10/>10 μg/ml in [6]; 2.5 µg/mL in experiment [7]; 0.25 µg/mL in [8]; 10/10 μg/ml in experiment [9] (setting [11]).
